Measured values: patent US20180085386A1, “URIDINE MONOPHOSPHATE AND TRIPHOSPHATE DERIVATIVES, COMPOSITIONS AND METHODS OF USE” (Tufts University, priority 2016, published 2018)
pEC50: −log10 of the molar value. Where two headings read alike, the source gives them in different places.

Experiments:
P2Y2 receptor = target: T1, P2Y2 receptor (Homo sapiens, UniProt P41231); experiment: Ca2+ mobilizing effect (fluo-4) in 1321N1 cells expressing P2Y2 receptor; assay type: cell-based
T1 construct: expressed in transfected cells; host or cells: 1321N1 human astrocytoma cells
T1 sequence (P41231 whole entry): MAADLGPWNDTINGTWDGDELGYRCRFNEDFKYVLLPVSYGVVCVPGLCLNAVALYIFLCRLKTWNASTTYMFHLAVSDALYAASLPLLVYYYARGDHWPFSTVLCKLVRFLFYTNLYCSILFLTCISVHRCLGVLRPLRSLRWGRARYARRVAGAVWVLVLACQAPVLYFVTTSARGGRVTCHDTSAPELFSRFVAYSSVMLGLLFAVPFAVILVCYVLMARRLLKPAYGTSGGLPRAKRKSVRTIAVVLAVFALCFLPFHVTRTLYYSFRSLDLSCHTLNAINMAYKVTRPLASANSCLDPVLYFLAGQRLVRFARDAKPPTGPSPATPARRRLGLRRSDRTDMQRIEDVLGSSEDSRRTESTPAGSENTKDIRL
Method: (§1) Nucleoside disphosphate analogs of the foregoing compounds were tested for activation of P2Y6 receptor by measuring receptor induced Ca^2+ changes with the fluorescent Ca^2+ indicator fluo-4. 1321N1 human astrocytoma cell lines either expressing P2Y2, P2Y4 or P2Y6 receptors were plated into 24-well plates. Two days after plating, fluorometric measurements were made and responses of cells to a serial dilution of compound were determined. P2Y6 receptor mediated Ca^2+ fluorescent change was determined by normalized accumulation of fluorescent change of 3 timepoints after compound administration subtracted by value from ACSF control. Changes in fluorescent intensity were plotted corresponding to compound concentration in GraphPad. Dose-response curve and EC50 for each compound was estimated using nonlinear curve fit and Sigmoidal dose-response analysis. […]
(§2) Synthetic compounds were tested for activation of P2Y6 receptor by measuring receptor induced Ca^2+ changes with the fluorescent Ca^2+ indicator fluo-4, and results are shown in FIGS. 3(A)-(K). […] Two days after plating, fluorometric measurements were made and responses of cells to a serial dilution of compound were determined. P2Y6 receptor mediated Ca^2+ fluorescent change was determined by normalized accumulation of fluorescent change of 3 timepoints after compound administration subtracted by value from ACSF control. […]

P2Y4 receptor = target: T2, P2Y4 receptor (Homo sapiens, UniProt P51582); experiment: Ca2+ mobilizing effect (fluo-4) in 1321N1 cells expressing P2Y4 receptor; assay type: cell-based
T2 construct: expressed in transfected cells; host or cells: 1321N1 human astrocytoma cells
T2 sequence (P51582 whole entry): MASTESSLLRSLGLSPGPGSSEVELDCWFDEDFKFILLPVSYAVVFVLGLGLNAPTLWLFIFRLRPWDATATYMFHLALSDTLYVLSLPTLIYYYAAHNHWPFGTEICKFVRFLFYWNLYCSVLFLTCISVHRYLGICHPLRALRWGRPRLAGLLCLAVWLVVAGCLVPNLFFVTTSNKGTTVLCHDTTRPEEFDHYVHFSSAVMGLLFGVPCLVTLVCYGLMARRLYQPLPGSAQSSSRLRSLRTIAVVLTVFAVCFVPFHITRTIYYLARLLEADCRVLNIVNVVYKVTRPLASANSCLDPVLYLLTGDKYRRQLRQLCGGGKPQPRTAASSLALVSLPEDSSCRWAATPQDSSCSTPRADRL
Method: as §1, §2

P2Y6 receptor [1] = target: T3, P2Y6 receptor (Homo sapiens, UniProt Q15077); experiment: Activation of P2Y6 receptor: receptor induced Ca2+ changes with fluo-4 in 1321N1 cells; assay type: cell-based; parameters: expressed in transfected cells; host or cells: 1321N1 human astrocytoma cells
T3 sequence (Q15077 whole entry): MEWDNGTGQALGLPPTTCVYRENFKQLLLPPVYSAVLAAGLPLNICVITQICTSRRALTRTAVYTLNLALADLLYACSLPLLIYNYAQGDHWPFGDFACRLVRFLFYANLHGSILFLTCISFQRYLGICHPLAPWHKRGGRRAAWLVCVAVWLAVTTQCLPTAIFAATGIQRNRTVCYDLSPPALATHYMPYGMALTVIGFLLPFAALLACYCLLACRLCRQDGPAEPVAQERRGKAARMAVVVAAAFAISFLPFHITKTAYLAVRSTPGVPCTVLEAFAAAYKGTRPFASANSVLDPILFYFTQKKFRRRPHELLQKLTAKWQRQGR
Method: as §1, §2

PSAPP mice [2] = experiment: Plaque load in cortex and hippocampus by amyloid beta immunostaining; assay type: in vivo, mouse; settings: for immunoreactivity of β1-40 in cortex: FIG. 2A; for immunoreactivity of β1-40 in hippocampus: FIG. 2B
Method: PSB0474 was systemically administered to PSAPP mice via intraperitoneal injection for 2, 4 and 6 consecutive days. In one group, prior to evaluation and following to administration for 6 consecutive days, treatment was suspended for two weeks (6+2 weeks group). Brains were then fixed and plaque load was evaluated by immunostaining with the amyloid beta specific antibodies: β1-40 and β1-42. Representative images of plaque load in cortex and hippocampus from animals that received injections of PSB0474 according to the foregoing injection schedules are shown in FIGS. 1(A)-(D). […] Whereas, when administration of PSB0474 was stopped for 2 weeks following six consecutive days of treatment (denoted as the 6+2 weeks group), β1-40 staining rebounded; although to a level lower than observed in mice treated with saline as a vehicle control. […] FIGS. 2C-2F depict data obtained following administration of different dosages of PSB0474.
To generate these graphs showing plaque load, mice were euthanized, brain sections cut and antibodies directed against Aβ42 were used to disclose Aβ plaques. Images were acquired digitally and an algorithm was applied to threshold the image so that plaques were isolated from the background. The algorithm then calculated the percent area of the field of view occupied by the plaques.
Brain samples were collected for Abeta analysis with immunostaining. Brains samples were collected after transcardial perfusion with phosphate buffer and 4% paraformaldehyde. Floating brain sections (40 micron) were collected using a microtome. Immunostaining for […] and Aβ42 were performed according to previously established protocol. Images with DAB staining were collected with brightfield microscopy and analyzed with ImageJ Macro. All data analysis and statistics were performed in GraphPad Prism 6.0.
(§3) In this study, treatment of PSAPP mice commenced when the mice were pre-symptomatic. Specifically, treatment was initiated when the mice were approximately 3 months old. PSAPP mice were treated for 100 days with daily, intraperitoneal injections of 10 μg/kg of compound 5 or vehicle. Following treatment, mice were assessed in a fear conditioning task for memory formation. Subsequently, plaque burden in the mice was also evaluated. The data provided in Examples 16 and 17 is for 19 vehicle treated mice and 22 compound treated mice. The data provided for the vehicle-treated group is the average across those mice, and error bars depict the standard error (SEM). Similarly, the data provided for the compound-treated group is the average across those mice, and the error bars depict the SEM.
as §3, with “assessed for the following: concentration of circulating pro-inflammatory cytokines; amyloid beta load (e.g., plaque burden); and memory” for “assessed”, “formation.” for “formation. Subsequently, plaque burden in the mice was also evaluated.”, “Example 18” for “Examples 16 and 17”, “18” for “19”, “20” for “22”, “SEM. Mice were first evaluated in the fear conditioning task experiment. Subsequently, plasma was taken for multiplex cytokine analysis of circulating levels of cytokine in the plasma. Finally, plaque burden was assessed in the cortex and hippocampus of the mice.” for “SEM.”
In this study, treatment of PSAPP mice commenced after the mice were already symptomatic. Specifically, treatment was initiated when the mice were approximately 6 months old. […]

PSAPP mice [3] = experiment: Tolerability of increased dose of PSB0474 in PSAPP mice; assay type: in vivo, mouse; settings: 1000× increase in dose
P2Y6 receptor [4] = target: T3, P2Y6 receptor; settings: cited from earlier work
THP-1 cells = experiment: Cytokine release from human THP-1 cells (multiplex analysis of culture medium); assay type: cell-based; settings: 24 hours, vs vehicle
Method: THP-1 cells, a human cell line derived from monocytes, were treated in vitro with vehicle, the P2Y6 receptor antagonist MRS 2578, or compound 5, singly or in combination. THP-1 cells were seeded in 24 well plates at a density of 4×10^5 cells/well in culture medium for 24 hours. Thereafter, vehicle, compound 5, or MRS 2578 (singly or in combination) were added to the cultures for 24 hours. Subsequently the culture medium was aspirated and subjected to multiplex cytokine analysis. Data are presented as means+/−sem. MRS 2578 has a molecular weight of about 472 and is also described using CAS number 711019-86-2.

Q: What does the source list for `O=c1ccn(C2OC(COP(=O)(O)OP(=O)(O)O)C(O)[C@@H]2O)c(=O)n1Cc1noc2ccccc12` (stereo partly shown)?
A: elevating Ca^2+ levels in P2Y2 receptor expressing cells (P2Y2 receptor): not effective; elevating Ca^2+ levels in P2Y4 receptor expressing cells (P2Y4 receptor): not effective; pEC50 (P2Y6 receptor [1]; 1321N1 human astrocytoma cells expressing P2Y6, fluo-4 Ca2+ fluorescence): 7.92; ability to elevate Ca^2+ signals in P2Y6 receptor expressing cells (P2Y6 receptor [1]; with addition of the P2Y6 antagonist MRS2578): attenuated

Q: Which β1-40 staining (PSAPP mice [2]; 6 consecutive days, then stopped for 2 weeks (6+2 weeks group), still lower than saline control) does the source give for `O=C(Cn1c(=O)ccn([C@@H]2O[C@H](COP(=O)(O)OP(=O)(O)O)[C@@H](O)[C@H]2O)c1=O)c1ccccc1` [3-phenacyl-UDP, reference compound] here?
A: The β1-40 staining was “rebounded”.

Q: What about the “effects on the efficacy endpoint (plaque load)” value (PSAPP mice [2]; higher dose of 1 mg/kg, FIGS. 2C-2F) of the same compound?
A: Its value is “smaller effects”.

Q: What about the “immunoreactivity of β1-40 in cortex” value (PSAPP mice [2]; i.p. for 4 consecutive days) of the same compound?
A: Its value is “significantly decreased”.

Q: And the “immunoreactivity of β1-40 in hippocampus” value (PSAPP mice [2]; i.p. for 4 consecutive days)?
A: Its value is “significantly decreased”.

Q: What about the “immunoreactivity of β1-40 in cortex” value (PSAPP mice [2]; i.p. for 6 consecutive days) of the same compound?
A: The value was “significantly decreased”.

Q: And the “immunoreactivity of β1-40 in hippocampus” value (PSAPP mice [2]; i.p. for 6 consecutive days)?
A: The value was “significantly decreased”.

Q: What about the “detrimental effects to the animal” value (PSAPP mice [3]) of the same compound?
A: Its value is “did not cause detrimental effects”.

Q: What about the pEC50 (P2Y6 receptor [4]; P2Y6 receptor agonist) of the same compound?
A: Its pEC50 is 7.15.

Q: What about the “selectivity for P2Y6 receptor” value (P2Y6 receptor [4]) of the same compound?
A: Its value is over 500 fold.

Q: What does the source list for `S=C=Nc1cccc(NC(=S)NCCCCNC(=S)Nc2cccc(N=C=S)c2)c1` [MRS 2578]?
A: release of fractalkine into culture media (THP-1 cells; FIG. 18A): increased; release of PDGF-BB into culture media (THP-1 cells; FIG. 18B): increased; release of IL-7 into culture media (THP-1 cells; MRS 2578 alone, FIG. 18C, FIG. 19): increased
